Test results as given in ChEMBL document CHEMBL1133280, “Discovery and synthesis of a potent sulfonamide ET(B) selective antagonist” (Bioorg Med Chem Lett, 2000).
pIC50: −log10 of the molar value.

Columns and labels:
Endothelin-1 receptor = target: T1, Endothelin-1 receptor (Rattus norvegicus, UniProt P26684); experiment: Displacement of [125 I] ET-1 from rat aortic smooth muscle A7r5 cells transfected with Endothelin A receptor; assay type: cell-based
T1 sequence (P26684 whole entry): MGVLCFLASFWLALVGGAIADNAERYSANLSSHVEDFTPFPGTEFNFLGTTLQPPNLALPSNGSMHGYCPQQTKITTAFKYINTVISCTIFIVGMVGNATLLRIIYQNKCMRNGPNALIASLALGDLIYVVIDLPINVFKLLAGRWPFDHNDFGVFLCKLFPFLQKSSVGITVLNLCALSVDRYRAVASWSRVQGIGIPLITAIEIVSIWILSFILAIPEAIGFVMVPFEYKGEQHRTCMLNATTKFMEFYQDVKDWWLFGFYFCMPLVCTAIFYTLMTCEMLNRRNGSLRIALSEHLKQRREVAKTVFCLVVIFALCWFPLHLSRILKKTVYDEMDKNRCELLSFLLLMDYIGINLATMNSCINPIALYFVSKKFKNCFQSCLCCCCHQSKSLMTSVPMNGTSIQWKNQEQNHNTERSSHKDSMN

[1] = Ratio of IC50 of rat ETA receptor to that of porcine ETB receptor
[2] = target: T2, Endothelin receptor type B (Sus scrofa, UniProt P35463); experiment: Binding affinity towards displacement of [125 I] ET-3 from COS-7 cells transfected with porcine Endothelin B receptor; assay type: cell-based
T2 sequence (P35463 whole entry): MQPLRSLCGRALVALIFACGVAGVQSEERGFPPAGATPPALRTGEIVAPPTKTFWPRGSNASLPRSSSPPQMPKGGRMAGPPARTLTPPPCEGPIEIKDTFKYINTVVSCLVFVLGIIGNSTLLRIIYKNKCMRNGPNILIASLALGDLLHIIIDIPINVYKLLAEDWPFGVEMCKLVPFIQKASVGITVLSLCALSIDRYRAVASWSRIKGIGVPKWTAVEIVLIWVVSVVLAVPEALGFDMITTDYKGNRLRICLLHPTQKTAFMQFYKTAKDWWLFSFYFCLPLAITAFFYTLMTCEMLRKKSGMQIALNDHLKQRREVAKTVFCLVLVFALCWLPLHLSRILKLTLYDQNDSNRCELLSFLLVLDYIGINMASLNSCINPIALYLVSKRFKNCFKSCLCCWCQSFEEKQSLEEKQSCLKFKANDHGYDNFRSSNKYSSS

Compound | pIC50 (Endothelin-1 receptor) | Ratio [1] | pIC50 [2]
Cc1nsc(NS(=O)(=O)c2ccc(C(C)(C)C)cc2)c1C | < 3.30 | – | –
Cc1onc(NS(=O)(=O)c2ccc(C(C)(C)C)cc2)c1C | 4.55 | – | –
COc1cccc(Sc2c(NS(=O)(=O)c3ccc(C(C)(C)C)cc3)noc2CCCC(=O)O)c1 | – | 8.6 | 6.30
CCc1c(NS(=O)(=O)c2ccc(N)cc2)noc1C | 5.47 | – | –
Cc1onc(NS(=O)(=O)c2ccc(N)cc2)c1Cl | 5.46 | – | –
COc1cccc(Sc2c(NS(=O)(=O)c3ccc(C(C)(C)C)cc3)noc2CCCC(N)=O)c1 | 5.20 | 26 | 6.62
Cc1onc(NS(=O)(=O)c2ccc(N)cc2)c1Cc1ccccc1 | 4.15 | – | –
COc1cccc(Sc2c(NS(=O)(=O)c3ccc(C(C)(C)C)cc3)noc2CCC/C=N/O)c1 | 5.82 | 18 | 7.07
Cc1onc(NS(=O)(=O)c2ccc(C(C)(C)C)cc2)c1I | < 4.00 | – | 4.52
COC(=O)CCCc1onc(NS(=O)(=O)c2ccc(C(C)(C)C)cc2)c1Sc1cccc(OC)c1 | 6.40 | 1.3 | 6.51
COc1cccc(Sc2c(NS(=O)(=O)c3ccc(C(C)(C)C)cc3)noc2CCCCO)c1 | 6.20 | 2.6 | 6.62
COc1cccc(Sc2c(NS(=O)(=O)c3ccc(C(C)(C)C)cc3)noc2CCCC(C)=O)c1 | 5.89 | 3.3 | 6.40
COc1cccc(Sc2c(NS(=O)(=O)c3ccc(C(C)(C)C)cc3)noc2CCO)c1 | 6.11 | 1.8 | 6.37
CCc1onc(NS(=O)(=O)c2ccc(C(C)(C)C)cc2)c1Sc1cccc(OC)c1 | 6.10 | 0.3 | 5.55
CSc1c(NS(=O)(=O)c2ccc(C(C)(C)C)cc2)noc1C | < 4.00 | – | 4.46
COc1cccc(Sc2c(NS(=O)(=O)c3ccc(C(C)(C)C)cc3)noc2CO)c1 | 5.21 | 11 | 6.25
COc1cccc(Sc2c(NS(=O)(=O)c3ccc(C(C)(C)C)cc3)noc2CCCC=O)c1 | 5.77 | 850 | 8.70
COc1cccc(Sc2c(NS(=O)(=O)c3ccc(C(C)(C)C)cc3)noc2CCCCC=O)c1 | 5.85 | 70 | 7.70
COc1cccc(Sc2c(NS(=O)(=O)c3ccc(C(C)(C)C)cc3)noc2C)c1 | 6.28 | 1.8 | 6.52
COc1cccc(Sc2c(NS(=O)(=O)c3ccc(C(C)(C)C)cc3)noc2CCC=O)c1 | 6.42 | 0.8 | 6.30
Cc1snc(NS(=O)(=O)c2ccc(N)cc2)c1C | 4.55 | – | –
COc1cccc(Sc2c(NS(=O)(=O)c3ccc(C(C)(C)C)cc3)noc2CCCO)c1 | 6.49 | 2.3 | 6.85
COc1cccc(Sc2c(NS(=O)(=O)c3ccc(C(C)(C)C)cc3)noc2CCCC#N)c1 | 5.89 | 2.5 | 6.28
Cc1onc(NS(=O)(=O)c2ccc(N)cc2)c1I | 4.96 | – | < 3.00
